Tests used:
M21 human melanoma = test: Tumor growth inhibition, M21 human melanoma in mice; assay type: in vivo, SCID mice; conditions: cyclophosphamide 150 mg/kg ip on days 14, 16 and 18
Experimental: In this model, cyclophosphamide was administered (150 mg/kg;ip) on days 14, 16 and 18, and XII (10 mg/kg, BID, PO) was administered continuously after the chemotherapeutic beginning on day 21.

LLC tumor = test: Tumor growth inhibition, LLC tumor in mice
Experimental: Tumor cells for implantation were taken from cells either grown in tissue culture (Leydig, M21) or serially passaged as tumors in mice and prepared as tumor brei (LLC, PC-3) by methodology known in the art. Mice were injected subcutaneously in the proximal dorsal midline with 5×10^6 tumor cells and administration of test αvβ3 integrin antagonist compound was initiated the evening of the same day either prior to the chemotherapeutic agent, delayed and on the same day as the chemotherapeutic agent or delayed and following the chemotherapeutic agent. Tumor volumes were measured at intervals over the course of the experiments. Tumors were measured with a vernier caliper and volumes were determined using the formula for the volume of a cylinder: tumor volume=width^2×length×0.52. Blood was routinely drawn, for serum calcium determination and plasma drug concentration, 6 hours post-dosing on day 4 or 5 and again 12 hours post-dosing on the day of sacrifice. On the final day of the experiment, tumors were dissected free and weighed. Calcium concentrations of serum samples were determined calorimetrically using a clinical diagnostic kit. The data are expressed as the mean +/− SEM. Student's and Mann-Whitney tests were used to assess differences between means or medians using the InStat software package.

Rice Leydig tumor cells = test: Tumor growth inhibition, Rice Leydig tumor in SCID mice
Experimental: Tumor cells for implantation were taken from cells either grown in tissue culture (Leydig, M21) or serially passaged as tumors in mice and prepared as tumor brei (LLC, PC-3) by methodology known in the art. Mice were injected subcutaneously in the proximal dorsal midline with 5×10^6 tumor cells and administration of test αvβ3 integrin antagonist compound was initiated the evening of the same day either prior to the chemotherapeutic agent, delayed and on the same day as the chemotherapeutic agent or delayed and following the chemotherapeutic agent. Tumor volumes were measured at intervals over the course of the experiments. Tumors were measured with a vernier caliper and volumes were determined using the formula for the volume of a cylinder: tumor volume=width^2×length×0.52. […] On the final day of the experiment, tumors were dissected free and weighed. […] The data are expressed as the mean +/− SEM. Student's and Mann-Whitney tests were used to assess differences between means or medians using the InStat software package.

[1] = cisplatin 10 mg/kg ip day 5, XII at 10 mg/kg

SMILES	Inhibition of growth of M21 tumors (M21 human melanoma)	Median survival time (LLC tumor; [1])	Time to develop a tumor >500 mm^3 (LLC tumor; [1])	Effect on growth of the LLC tumor (LLC tumor; cisplatin single ip dose 10 mg/kg on day 5, XII 1 and 10 mg/kg, oral, BID from day 1)	Tumor growth inhibition (Rice Leydig tumor cells; cisplatin at maximum tolerated dose, XII 10 mg/kg PO, compared to control-treated mice)	Effect on survival time (Rice Leydig tumor cells; tumor bearing SCID mice)
O=P1(N(CCCl)CCCl)NCCCO1 (stereo not drawn) [Cyclophosphamide, cyclophosphamide]	significantly inhibited	–	–	–	–	–
N.N.[Cl][Pt][Cl] [Cisplatin, cisplatin]	–	33 days	22.4 days	significantly retarded	approximately 50%	little effect

Reference: patent publication US6372719B1, “ανβ3 integrin antagonists in combination with chemotherapeutic agents” (priority 1998, dated 2002)
